Source: US6399610B1, “Transmucosal formulations of levosimendan” (Orion Corporation, priority 1997, dated 2002)

Assay: Bioavailability of levosimendan following buccal and intravenous administration in dogs (plasma concentration)
Format: in vivo, beagle dogs
Settings: for concentration at 10 min / concentration at 20 min / concentration at 40 min / concentration at 60 min / concentration at 90 min / concentration at 120 min: beagle, dog, plasma, 0.02 mg/kg; for concentration at 10 min / concentration at 20 min / concentration at 40 min / concentration at 60 min / concentration at 90 min / concentration at 120 min / Levosimendan concentration: dog plasma; for Levosimendan concentration: 0 min
Method: Bioavailability of levosimendan was studied in dogs following buccal and intravenous administration of 0.02 mg/kg of the compound. As experimental animals, three beagle dogs were used. At the time of dosing all animals weighed approximately 10 kg. The dogs were given levosimendan as an intravenous injection or buccal spray at one week intervals. Appropriate concentration (2 mg/ml in 96% ethanol) of the compound was prepared in 10 ml amber glass containers sealed with spray nozzles (50 μl dose, Pfeiffer). The 0.02 mg/kg buccal dose was thus obtained by spraying 2 consecutive 50 μl doses to the buccal cavity of the animals (the dosing volume being thus 0.1 ml/10 kg). The iv dose (0.1 ml/10 kg) was taken from the same bottles.
5 ml of blood was collected from the cephalic vein at the following times after administration: 0, 10, 20, 40, min, 1, 1.5 and 2 hours. Plasma was separated and stored frozen in −20 ° C. until analyzed.
Levosimendan in dog plasma was determined by a non-enantioselective method, in which an automated sample preparation technique combined with high performance liquid chromatography was used. The plasma clean-up was performed by on-line dialysis and the, dialysate was retained on a trace enrichment column. The analyte was then-separated on an analytical column and detected with a UV-detector. The limit of quantitation was 5 ng/ml and the quantitation range 5-500 ng/ml.
The apparatus comprised a Gilson ASTED (Automated Sequential Trace Enrichment System) system (Gilson Medical Electronics, Villiers-le-Bel, France). The dialysis cell was fitted with a Cuprophan cellulose membrane with a molecular cut-off of 15 kDa and the trace enrichment column was a Hypersil ODS (5.8×4.6 mm i.d., 10 μm). The chromatographic system consisted of an LKB Model 2150 pump (Bromma, Sweden) and a Lichrosorb RP-18 (250×4 mm i.d., 10 μm) column (Merck, Darmstadt, Germany). The detector was a Spectra 100 UV-VIS (Spectra-Physics, San Jose, Calif., USA). The wavelength was 380 nm. The mobile phase consisted of a 32 mM monosodium dihydrogen phosphate buffer, methanol, and tetrahydrofuran (45:65:1, v/v/v, pH 3.5). The mobile phase flow rate was 1.0 ml/min.

[1] = other: buccal spray, buccal spray 0.02 mg/kg, Dog 1
[2] = other: buccal spray, buccal spray 0.02 mg/kg, Dog 2
[3] = other: buccal spray, buccal spray 0.02 mg/kg, Dog 3

- concentration at 10 min (iv, iv 0.02 mg/kg, Dog 1): 128 ng/mL
- concentration at 10 min (iv, iv 0.02 mg/kg, Dog 2): 103 ng/mL
- concentration at 10 min (iv, iv 0.02 mg/kg, Dog 3): 100 ng/mL
- concentration at 20 min (iv, iv 0.02 mg/kg, Dog 1): 105 ng/mL
- concentration at 20 min (iv, iv 0.02 mg/kg, Dog 2): 71 ng/mL
- concentration at 20 min (iv, iv 0.02 mg/kg, Dog 3): 82 ng/mL
- concentration at 40 min (iv, iv 0.02 mg/kg, Dog 1): 74 ng/mL
- concentration at 40 min (iv, iv 0.02 mg/kg, Dog 2): 46 ng/mL
- concentration at 40 min (iv, iv 0.02 mg/kg, Dog 3): 58 ng/mL
- concentration at 60 min (iv, iv 0.02 mg/kg, Dog 1): 58 ng/mL
- concentration at 60 min (iv, iv 0.02 mg/kg, Dog 2): 36 ng/mL
- concentration at 60 min (iv, iv 0.02 mg/kg, Dog 3): 46 ng/mL
- concentration at 90 min (iv, iv 0.02 mg/kg, Dog 1): 39 ng/mL
- concentration at 90 min (iv, iv 0.02 mg/kg, Dog 2): 24 ng/mL
- concentration at 90 min (iv, iv 0.02 mg/kg, Dog 3): 33 ng/mL
- concentration at 120 min (iv, iv 0.02 mg/kg, Dog 1): 28 ng/mL
- concentration at 120 min (iv, iv 0.02 mg/kg, Dog 2): 15 ng/mL
- concentration at 120 min (iv, iv 0.02 mg/kg, Dog 3): 25 ng/mL
- concentration at 10 min [1]: 10 ng/mL
- concentration at 10 min [2]: 17 ng/mL
- concentration at 10 min [3]: 7.6 ng/mL
- concentration at 20 min [1]: 24 ng/mL
- concentration at 20 min [2]: 24 ng/mL
- concentration at 20 min [3]: 9.4 ng/mL
- concentration at 40 min [1]: 32 ng/mL
- concentration at 40 min [2]: 25 ng/mL
- concentration at 40 min [3]: 25 ng/mL
- concentration at 60 min [1]: 26 ng/mL
- concentration at 60 min [2]: 22 ng/mL
- concentration at 60 min [3]: 24 ng/mL
- concentration at 90 min [1]: 18 ng/mL
- concentration at 90 min [2]: 17 ng/mL
- concentration at 90 min [3]: 22 ng/mL
- concentration at 120 min [1]: 13 ng/mL
- concentration at 120 min [2]: 12 ng/mL
- concentration at 120 min [3]: 16 ng/mL
- Levosimendan concentration (buccal spray 0.02 mg/kg, Dog 1): < (< means below quantitation range)
- Levosimendan concentration (buccal spray 0.02 mg/kg, Dog 2): < (< means below quantitation range)
- Levosimendan concentration (buccal spray 0.02 mg/kg, Dog 3): < (< means below quantitation range)
- Levosimendan concentration (iv 0.02 mg/kg, Dog 1): < (< means below quantitation range)
- Levosimendan concentration (iv 0.02 mg/kg, Dog 2): < (< means below quantitation range)
- Levosimendan concentration (iv 0.02 mg/kg, Dog 3): < (< means below quantitation range)
- Absorption into blood from the buccal spray (dogs, buccal spray 0.02 mg/kg): rapidly absorbed into blood
- Serum levels of levosimendan (dogs, buccal spray 0.02 mg/kg): steady serum levels
SMILES: CC1CC(=O)NN=C1c1ccc(NN=C(C#N)C#N)cc1 (single isomer, unassigned; (-)) [Levosimendan, (-)-enantiomer of [[4-(1,4,5,6-tetrahydro-4-methyl-6-oxo-3-pyridazinyl)phenyl]hydrazono]propanedinitrile]
